Measured values from paper PMC8041284, “Tunable Methacrylamides for Covalent Ligand Directed Release Chemistry” (Journal of the American Chemical Society, 2021).

Target: BTK (Homo sapiens, UniProt Q06187)
Test: biochemical
Conditions: read-out: BTK inhibition (%), 0.75 uM BTK, […] probe 3l, 15 min preincubation

BTK, sequence (Q06187 402-655 limits assumed): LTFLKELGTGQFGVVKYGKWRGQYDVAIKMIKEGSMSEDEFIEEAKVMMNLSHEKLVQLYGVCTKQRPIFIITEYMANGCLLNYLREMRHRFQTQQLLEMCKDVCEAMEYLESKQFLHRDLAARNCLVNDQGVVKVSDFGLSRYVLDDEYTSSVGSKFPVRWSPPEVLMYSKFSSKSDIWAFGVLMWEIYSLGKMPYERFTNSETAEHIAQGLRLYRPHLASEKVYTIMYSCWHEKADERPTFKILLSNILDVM

Row | Compound | inhibition at 10 µM [%]
1 | C=CC(=O)Nc1cccc(Oc2nc(Nc3ccc(N4CCN(C)CC4)cc3)nc3ccsc23)c1 [PCM-0215661] | 105
2 | CO[C@H]1C(=O)[C@]2(C)[C@@H](OC)C[C@H]3OC[C@@]3(OC(C)=O)[C@H]2[C@H](OC(=O)c2ccccc2)[C@]2(O)C[C@H](OC(=O)[C@H](O)[C@@H](NC(=O)OC(C)(C)C)c3ccccc3)C(C)=C1C2(C)C [PCM-0214715] | -14.8
3 | C[C@@H]1C[C@H]2[C@@H]3CCC4=CC(=O)C=C[C@]4(C)[C@@]3(Cl)[C@@H](O)C[C@]2(C)[C@@]1(OC(=O)c1ccco1)C(=O)CCl [PCM-0085978] | 40
4 | COc1cccc(-c2cc(F)ccc2[C@H]2Cc3nc(N)nc(C)c3C(=O)N2)n1 [PCM-0215352] | 2.3
5 | O=C1C(N(CO)C(=O)NCO)N(CO)C(=O)N1CO (stereo not drawn) [PCM-0216098] | -5.4
6 | CCCCCN(C)CCC(O)(P(=O)(O)O)P(=O)(O)O [PCM-0065595] | -0.9
7 | CCCCCCCCCC=O [PCM-0216148] | -10
8 | Cc1ccc(S(=O)(=O)Nc2cc(-c3ccc(C#N)s3)ccc2C)cc1 [PCM-0214896] | -6.2
9 | CCCCCCCCCCCCCCCCOP(=O)([O-])OCC[N+](C)(C)C [PCM-0090698] | -72.3
10 | C/C=C(\C)C(=O)O[C@H]1[C@H](OC(C)=O)[C@@]2(CO)C(CC1(C)C)C1=CCC3[C@@]4(C)CCC(O[C@@H]5O[C@H](C(=O)O)[C@@H](O[C@@H]6O[C@H](CO)[C@@H](O)[C@H](O)[C@H]6O)[C@H](O)[C@H]5O[C@@H]5O[C@H](CO)[C@@H](O)[C@H](O)[C@H]5O)[C@](C)(CO)C4CC[C@@]3(C)[C@]1(C)C[C@H]2O (stereo partly drawn) [PCM-0214843] | 3.4
11 | C/C=C(\C)C(=O)O [PCM-0215012] | 15.6
12 | CCCCC1C(=O)N(c2ccccc2)N(c2ccccc2)C1=O [PCM-0065475] | -17.2
13 | C[C@@]1(F)[C@H](O)[C@@H](CO)O[C@H]1n1ccc(=O)[nH]c1=O [PCM-0216055] | -20
14 | CCCS(=O)(=O)Nc1ccc(F)c(C(=O)c2c[nH]c3ncc(Cl)cc23)c1F [PCM-0094979] | 23.4
15 | CC(C)C[C@H](NC(=O)CNC(=O)[C@H](Cc1ccc(O)cc1)NC(=O)[C@H](CO)NC(=O)[C@H](Cc1c[nH]c2ccccc12)NC(=O)[C@H](Cc1cnc[nH]1)NC(=O)[C@@H]1CCC(=O)N1)C(=O)N[C@@H](CCCN=C(N)N)C(=O)N1CCC[C@H]1C(=O)NCC(N)=O [PCM-0216273] | -5.1
16 | O=C1C=C2C=C[C@@H](O)[C@H](O)[C@H]2O1 [PCM-0216441] | 25.5
17 | CC(C)(C)OC(=O)Nc1ccc(-c2cc(C(=O)NCCCCCCC(=O)NO)no2)cc1 [PCM-0215407] | 20.1
18 | CC(=O)O[C@]1(C(C)=O)CC[C@H]2[C@@H]3C=C(Cl)C4=CC(=O)[C@@H]5C[C@@H]5[C@]4(C)[C@H]3CC[C@@]21C [PCM-0214712] | 21
19 | O=C(c1ccc(Cl)cc1Cl)n1nnc2ccccc21 [PCM-0215673] | 17
20 | C[C@@H]1C/C=C/C=C/C=C/C=C/[C@H](O[C@@H]2O[C@H](C)[C@@H](O)[C@H](N)[C@@H]2O)C[C@@H]2O[C@](O)(C[C@@H](O)C[C@H]3O[C@@H]3/C=C/C(=O)O1)C[C@H](O)[C@H]2C(=O)O [PCM-0214709] | -22.6
21 | CC(C)=CCC[C@](C)(O[C@@H]1O[C@H](CO)[C@@H](O)[C@H](O)[C@H]1O)[C@H]1CC[C@]2(C)[C@@H]1[C@H](O)C[C@@H]1[C@@]3(C)CC[C@H](O)C(C)(C)[C@@H]3CC[C@]12C [PCM-0216397] | 11.6
22 | C[Si](C)(C)CCOCn1ccc2c(-c3cn[nH]c3)ncnc21 [PCM-0216552] | -40.9
23 | Cc1cc(C)nc(SCC(=O)Nc2ncc(Cc3cccc4ccccc34)s2)n1 [PCM-0215537] | 2.3
24 | Cc1cc(Nc2ncnc3ccc(NC4=NC(C)(C)CO4)cc23)ccc1Oc1ccn2ncnc2c1 [PCM-0215734] | 71.7
25 | C[C@H](Nc1ncnc2nc[nH]c12)c1cc2ccc(F)cc2nc1-c1ccccn1 [PCM-0215539] | 3.4
26 | O=C1Cc2ccccc2N1 [PCM-0215133] | 1.6

Row | Compound | inhibition at 10 µM [%]
27 | NC1=N[C@@](c2cccc(-c3cncnc3)c2)(c2ccnc(C(F)F)c2)c2cccc(F)c21 [PCM-0215490] | -5.4
28 | CC(CCc1ccccc1)NCC(=O)c1ccc(O)c(C(N)=O)c1 (stereo not drawn) [PCM-0216052] | -18.5
29 | O=c1cc(N2CCOCC2)oc2c(-c3ccccc3)cccc12 [PCM-0065588] | -22.1
30 | C=C1C[C@@]2(O)O[C@@]3(C[C@H]2C(C)C)[C@@H](C)CC[C@@H]13 [PCM-0214683] | -1.6
31 | CCCCCCCCCCCCCCCC(=O)OC [PCM-0216632] | 25.5
32 | CC(=O)[C@@]1(O)CC[C@H]2[C@@H]3C[C@H](C)C4=CC(=O)CC[C@]4(C)[C@H]3CC[C@@]21C [PCM-0214898] | -7.8
33 | CCCn1c(NC(=O)c2cccc(C(N)=O)c2)nc2ccccc21 [PCM-0215951] | -12.4
34 | C[C@](N)(Cc1ccc(O)c(O)c1)C(=O)O [PCM-0065509] | -18.7
35 | CC(C)C(=O)Nc1ccc([N+](=O)[O-])c(C(F)(F)F)c1 [PCM-0065325] | -3.4
36 | O=S(=O)(c1ccccc1)c1cnc2c(N3CCNCC3)cccc2c1 [PCM-0095346] | 3.1
37 | CCCCCCCC(=O)CCc1ccc(O)c(OC)c1 [PCM-0216195] | -8.3
38 | CC[C@H]1OC(=O)[C@H](C)[C@@H](O[C@H]2C[C@@](C)(OC)[C@@H](O)[C@H](C)O2)[C@H](C)[C@@H](O[C@@H]2O[C@H](C)C[C@H](N(C)C)[C@H]2O)[C@](C)(O)C[C@@H](C)CN[C@H](C)[C@@H](O)[C@]1(C)O [PCM-0215099] | -13.2
39 | CCC1(c2ccc(N)cc2)CCC(=O)NC1=O (stereo not drawn) [PCM-0064565] | -3.4
40 | CC(C)c1cc2c(cc1S(=O)(=O)O)[C@@]1(C)CCC[C@@](C)(C(=O)O)[C@@H]1CC2 [PCM-0216123] | 3.9
41 | O=c1[nH]cnc2[nH]ncc12 [PCM-0064482] | 18.7
42 | CN1CC[C@@H](c2c(O)cc(O)c3c(=O)cc(-c4ccccc4Cl)oc23)[C@@H]1CO [PCM-0215197] | -5.5
43 | COc1ccc2cc1Oc1ccc(cc1)C[C@H]1c3cc(c(OC)cc3CCN1C)Oc1c(O)c(OC)cc3c1[C@H](C2)N(C)CC3 [PCM-0214877] | 27.2
44 | OC[C@@H](O)CN1CCN(c2ccccc2)CC1 [PCM-0214752] | -22.8
45 | CCCN(CCC)C(=O)C1=Cc2ccc(-c3ccc(C(=O)N4CCCC4)cc3)cc2N=C(N)C1 [PCM-0215564] | -10.3
46 | COc1c(O)cc2c(c1O)C(=O)c1c(cc(C)c(O)c1OC)C2=O [PCM-0216431] | 28.6
47 | O=C(O)c1ccc2c(c1)C(=O)c1ccccc1C2=O [PCM-0216619] | 9.3
48 | Cc1sc2c(c1C)C(c1ccc(Cl)cc1)=N[C@@H](CC(=O)Nc1ccc(O)cc1)c1nnc(C)n1-2 [PCM-0095727] | 3.1
49 | CCCCCCCCC/C(=C\C1=C(C)C(=O)C(OC)=C(OC)C1=O)C(=O)O [PCM-0215484] | -13.9
50 | CC(NC(=O)[C@H](Cc1ccccc1)NC(=O)OCc1ccccc1)C(=O)CF (stereo partly drawn) [PCM-0215313] | -3.1
51 | COc1c(-c2ccc3cc(NS(C)(=O)=O)ccc3c2)cc(-n2ccc(=O)[nH]c2=O)cc1C(C)(C)C [PCM-0216081] | 73.4
